Source: patent publication US12329741B2, “HBV inhibitor and its use” (priority 2019, dated 2025)

Legend:
[1] = Cytotoxicity test (Cell-titer Blue method) in HepG2.2.15 cells; assay type: cell-based; settings: human, six days after treatment, highest concentration tested 100 μM, read-out: HepG2.2.15 cell viability CC50
Source text: (§1) In this experiment, real-time fluorescent quantitative PCR (qPCR) method was used to detect the content of HBV DNA in the supernatant of HepG2.2.15 cells to determine the anti-hepatitis B virus activity of the compound in HepG2.2.15 cells, and to detect cell viability impact of the test compound against HepG2.2.15 by Cell-titer Blue method. In the experiment, entecavir (ETV) was used as a reference compound to monitor the quality of the experiment.
The compound concentration, plate layout, and compound treatment process are consistent with the antiviral experiments. In six days after the cells were treated with the compound, the cell viability was measured with Cell-titer Blue.
Analyze the data and calculate relative cell viability: Use the following formula to calculate the percentage of cell viability: % Cell viability=(sample fluorescence reading-fluorescence reading of culture medium control)/(fluorescence reading of DMSO control-fluorescence reading of the culture medium control)×100.
Finally, GraphPad Prism software was used to calculate the CC50 value of the compound.

[2] = system: hepatitis B virus (HBV); experiment: Anti-hepatitis B virus activity: HBV DNA in supernatant of HepG2.2.15 cells by qPCR; assay type: cell-based; settings: 192 h, supernatant collected on day 8
Source text: as §1
On day 1, the cells were planted into a 96-well plate, the compound was added to treat the cells on day 2, a new culture medium containing the compound was replaced on day 5, and the supernatant was collected on day 8 to extract DNA. Quantitative PCR was used to detect the content of HBV DNA. Both the test compound and the control compound were diluted in a series of 3 times with 8 concentration points, and 2 replicate wells were measured in parallel. The final concentration of DMSO in the culture medium is 0.5%.
The calculation formula of the inhibition percentage is as follows: % inh.=(1-HBV copy number of sample/HBV copy number of 0.5% DMSO control)×100
EC50 was analyzed by Graphpad Prism software (four parameter logistic equations).

Compound	CC50 at 6 days [1]	EC50 [2]
Cc1c(C(=O)C(=O)NC(C)C(F)(F)F)c(C)n(C)c1C(=O)Nc1ccc2occc2c1 (stereo in doubt) [Compound 56, 1,3,5-Trimethyl-2-amide-N-(benzofuran-5-yl)-4-(2-((S)-1,1,1-trifluoropropane-2-Amino)-oxalyl)-pyrrole]	> 100 µM	≤ 0.05 µM
Cc1oc(C(=O)C(=O)NC(C)(C)C)cc1C(=O)Nc1ccc(F)c(Cl)c1 [Compound 1, 2-Methyl-3-amide-N-(3-chloro-4-fluorophenyl)-5-(2-tert-butylamino-oxalyl)-furan]	> 100 µM	0.5 to 5 µM
C#CC(C)NC(=O)C(=O)c1cc(C(=O)Nc2ccc(F)c(Cl)c2)c(C)o1 (stereo not shown) [Compound 3, 2-Methyl-3-amide-N-(3-chloro-4-fluorophenyl)-5-(2-(1-methylpropynamido)-oxalyl)-furan]	> 100 µM	0.5 to 5 µM
C#CC(C)(C)NC(=O)C(=O)c1cc(C(=O)Nc2ccc(F)c(Cl)c2)c(C)o1 [Compound 4, 2-Methyl-3-amide-N-(3-chloro-4-fluorophenyl)-5-(2-(1,1-dimethylpropynamido)-oxalyl)-furan]	> 100 µM	0.5 to 5 µM
CC#CCNC(=O)C(=O)c1cc(C(=O)Nc2ccc(F)c(Cl)c2)c(C)o1 [Compound 5, 2-Methyl-3-amide-N-(3-chloro-4-fluorophenyl)-5-(2-(2-alkynylbutylamino)-oxalyl)-furan]	> 100 µM	5 to 50 µM
Cc1oc(C(=O)C(=O)NCC#CC(C)C)cc1C(=O)Nc1ccc(F)c(Cl)c1 [Compound 6, 2-Methyl-3-amide-N-(3-chloro-4-fluorophenyl)-5-(2-(4-methyl-2-ynylpentylamino)-oxalyl)-furan]	82 µM	5 to 50 µM
Cc1oc(C(=O)C(=O)NCC#Cc2ccccc2)cc1C(=O)Nc1ccc(F)c(Cl)c1 [Compound 7, 2-Methyl-3-amide-N-(3-chloro-4-fluorophenyl)-5-(2-(3-phenyl-2-eynylpropylamino)-oxalyl)-furan]	29 µM	> 50 µM
Cc1oc(C(=O)C(=O)Nc2ccccc2)cc1C(=O)Nc1ccc(F)c(Cl)c1 [Compound 9, 2-Methyl-3-amide-N-(3-chloro-4-fluorophenyl)-5-(2-anilino-oxalyl)-furan]	> 100 µM	5 to 50 µM
C=CCn1cc(CNC(=O)C(=O)c2cc(C(=O)Nc3ccc(F)c(Cl)c3)c(C)o2)nn1 [Compound 10, 2-Methyl-3-amide-N-(3-chloro-4-fluorophenyl)-5-(2-(1-allyl-1H[1,2,3]-triazole-4-methylamino)-oxalyl)-furan]	> 100 µM	> 50 µM
Cc1oc(C(=O)C(=O)NC2(C(F)(F)F)CC2)cc1C(=O)Nc1ccc(F)c(Cl)c1 [Compound 16, 2-Methyl-3-amide-N-(3-chloro-4-fluorophenyl)-5-(2-(1-trifluoromethyl-cyclopropylamino)-oxalyl)-furan]	> 100 µM	0.05 to 0.5 µM
Cc1oc(C(=O)C(=O)NCc2c[nH]nn2)cc1C(=O)Nc1ccc(F)c(Cl)c1 [Compound 17, 2-Methyl-3-amide-N-(3-chloro-4-fluorophenyl)-5-(2-(1H-1,2,3-triazole-4-methylamino)-oxalyl)-furan]	> 100 µM	5 to 50 µM
Cc1oc(C(=O)C(=O)NC(C)(C)C)cc1C(=O)Nc1ccc(F)cc1 [Compound 18, 2-Methyl-3-amide-N-(4-fluorophenyl)-5-(2-tert-butylamino-oxalyl)-furan]	> 100 µM	0.5 to 5 µM
Cc1oc(C(=O)C(=O)NC(C)(C)C)cc1C(=O)Nc1ccc(F)c(F)c1 [Compound 19, 2-Methyl-3-amide-N-(3,4-difluorophenyl)-5-(2-tert-butylamino-oxalyl)-furan]	> 100 µM	0.5 to 5 µM
Cc1oc(C(=O)C(=O)NC(C)(C)C)cc1C(=O)Nc1cc(F)c(F)c(F)c1 [Compound 20, 2-Methyl-3-amide-N-(3,4,5-trifluorophenyl)-5-(2-tert-butylamino-oxalyl)-furan]	> 100 µM	0.05 to 0.5 µM
Cc1oc(C(=O)C(=O)NC(C)(C)C)cc1C(=O)Nc1ccc(F)c(C#N)c1 [Compound 21]	> 100 µM	0.5 to 5 µM
Cc1oc(C(=O)C(=O)NC(C)(C)C)cc1C(=O)Nc1ccc(C(F)(F)F)cc1 [Compound 22, 2-Methyl-3-amide-N-(4-trifluoromethylphenyl)-5-(2-tert-butylamino-oxalyl)-furan]	> 100 µM	> 50 µM

Compound	CC50 at 6 days [1]	EC50 [2]
C#Cc1cc(NC(=O)c2cc(C(=O)C(=O)NC(C)(C)C)oc2C)ccc1F [Compound 27, 2-Methyl-3-amide-N-(3-alkynyl-4-fluorophenyl)-5-(2-tert-butylamino-oxalyI)-furan]	> 100 µM	5 to 50 µM
C#Cc1cccc(NC(=O)c2cc(C(=O)C(=O)NC(C)(C)C)oc2C)c1 [Compound 28, 2-Methyl-3-amide-N-(3-alkynylphenyl)-5-(2-tert-butylamino-oxalyl)-furan]	> 100 µM	5 to 50 µM
Cc1sc(C(=O)C(=O)NC(C)(C)C)cc1C(=O)Nc1ccc(F)c(Cl)c1 [Compound 29, 2-Methyl-3-amide-N-(3-chloro-4-fluorophenyl)-5-(2-tert-butylamino-oxalyl)-thiophene]	> 100 µM	0.05 to 0.5 µM
C#CCNC(=O)C(=O)c1cc(C(=O)Nc2ccc(F)c(Cl)c2)c(C)s1 [Compound 30, 2-Methyl-3-amide-N-(3-chloro-4-fluorophenyl)-5-(2-propargylamino-oxalyl)-thiophene]	> 100 µM	0.5 to 5 µM
Cc1sc(C(=O)C(=O)NC(C)(C)C)cc1C(=O)Nc1ccc(F)c(F)c1 [Compound 34, 2-Methyl-3-amide-N-(3,4-difluorophenyl)-5-(2-tert-butylamino-oxalyl)-thiophene]	> 100 µM	0.05 to 0.5 µM
Cc1sc(C(=O)C(=O)NC(C)(C)C)cc1C(=O)Nc1cc(F)c(F)c(F)c1 [Compound 35, 2-Methyl-3-amide-N-(3,4,5-trifluorophenyl)-5-(2-tert-butylamino-oxalyl)-thiophene]	> 100 µM	0.5 to 5 µM
C#CC(C)(C)NC(=O)C(=O)c1sc(C)c(C(=O)Nc2ccc(F)c(Cl)c2)c1C [Compound 38, 2,4-Dimethyl-3-amide-N-(3-chloro-4-fluorophenyl)-5-(2-(1,1-dimethylpropynamido)-oxalyl)-thiophene]	> 100 µM	≤ 0.05 µM
C#CC(C)(C)NC(=O)C(=O)c1sc(C)c(C(=O)Nc2ccc3occc3c2)c1C [Compound 39, 2,4-Dimethyl-3-amide-N-(benzofuran-5-yl)-5-(2-(1,1-dimethylpropynamido)-oxalyl)-Thiophene]	> 100 µM	≤ 0.05 µM
COCC1(NC(=O)C(=O)c2sc(C)c(C(=O)Nc3ccc4occc4c3)c2C)COC1 [Compound 41]	> 100 µM	≤ 0.05 µM
CC(C)(C)NC(=O)C(=O)c1cc(C(=O)Nc2ccc(F)cc2)c(C(C)(C)C)o1 [Compound 43, 2-tert-Butyl-3-amide-N-(4-fluorophenyl)-5-(2-tert-butylamino-oxalyl)-furan]	> 100 µM	5 to 50 µM
CC(C)(C)NC(=O)C(=O)c1nc(C(=O)Nc2ccc(F)c(Cl)c2)cs1 [Compound 44, 2-(2-Tert-Butylamino-oxalyl)-4-amide-N-(3-chloro-4-fluoro-phenyl)-thiazole]	28 µM	> 50 µM
Cc1oc(C(=O)C(=O)NC(C)(C)C)c(Cl)c1C(=O)Nc1cc(F)c(F)c(F)c1 [Compound 49, 2-Methyl-3-amide-N-(3,4,5-trifluorophenyl)-4-chloro-5-(2-tert-butylamino-oxalyl)-furan]	47 µM	5 to 50 µM
C#CC1(NC(=O)C(=O)c2c(C)c(C(=O)Nc3ccc4occc4c3)n(C)c2C)CC1 [Compound 55, 1,3,5-Trimethyl-2-amide-N-(benzofuran-5-yl)-4-(2-(1-ethynylcyclopropane-1-amino)-oxalyl)-Pyrrole]	> 100 µM	≤ 0.05 µM
Cc1c(C(=O)C(=O)NC2(C)COC2)c(C)n(C)c1C(=O)Nc1ccc2occc2c1 [Compound 57, 1,3,5-Trimethyl-2-amide-N-(benzofuran-5-yl)-4-(2-(3-methyl-3-oxetanino)-oxalyl)-pyrrole]	> 100 µM	≤ 0.05 µM
Cc1c(C(=O)C(=O)NC2CCCC2)c(C)n(C)c1C(=O)Nc1ccc2occc2c1 [Compound 58, 1,3,5-Trimethyl-2-amide-N-(benzofuran-5-yl)-4-(2-cyclopentylamino-oxalyl)-pyrrole]	> 100 µM	≤ 0.05 µM
Cc1c(C(=O)C(=O)Nc2nccs2)c(C)n(C)c1C(=O)Nc1ccc2occc2c1 [Compound 59, 1,3,5-Trimethyl-2-amide-N-(benzofuran-5-yl)-4-(2-(thiazol-2-amino)-oxalyl)-pyrrole]	> 100 µM	≤ 0.05 µM
